From article PMC9179882 (Cancers, 2022)

Tests used:
SW480 cells = test: Resazurin cytotoxic assay, tumoral SW480; assay type: cell-based, human; details: Homo sapiens, SW480, 48 h, SW480 primary tumor cells, mean ± SD
Description: (§1) CRL1790, SW480 and SW620 cell lines were purchased from American Type Culture Collection (ATCC). Cells were cultured at 37 °C with 5% CO2 atmosphere in medium supplemented with 10% fetal bovine serum (10270106, Gibco, Waltham, MA, USA), 10 mg/mL penicillin, 10 mg/mL streptomycin, […] amphotericin, and 0.03% L-Glutamine as recommended by the ATCC. MEM medium (M5650, Merck, Darmstadt, Germany) was used for non-tumoral CRL1790, and RPMI 1640 medium (L0501-500, Biowest, Nuaillé, France) was used for both tumoral SW480 and SW620 cell lines.
(§2) Cytotoxic activity was screened using Resazurin Fluorimetric Assay (R7017, Merck, Darmstadt, Germany), according to the manufacturer’s protocol. Cells seeded into 96-well plates (8 × 10^3 cells/well) were treated for 48 h with phenolic compounds at increasing concentrations from 2 × 10^−5 µM to 100 µM. Negative control with vehicle DMSO was included. Fluorescence was determined using Nanoquant Infinite M200 Pro multi-plate reader (Tecan). Half-maximal inhibitory concentration (IC50) values were determined in triplicate by non-linear regression with Graphpad (Prism).
(§3) Natural products such as phenolic compounds have recently attracted significant attention for their anticancer properties. […] We used three different cell lines to mimic CRC progression. In particular, CRL1790 are colon epithelial cells simulating the non-tumoral stage. In addition, SW480 is Dukes’ type B colorectal adenocarcinoma cells representing the primary tumor. Finally, SW620 constitutes Dukes’ type C colorectal adenocarcinoma derived from metastasic site cells to mimic the most aggressive metastasic stage. […] Cytotoxic potency upon 48 h treatment with phenolic compounds was examined by determination of half-maximal inhibitory concentration (IC50) values using the Resazurin method (Table 1). Only GA inhibited cell growth in SW480 and SW620 at clinically-relevant concentrations (IC50 values lower than 30 µM).

SW620 cells = test: Resazurin cytotoxic assay, metastatic SW620; assay type: cell-based, human; details: Homo sapiens, SW-620, 48 h, mean ± SD
Description: as §1, §2, §3

CRL1790 cells = test: Resazurin cytotoxic assay, non-tumoral CRL1790; assay type: cell-based; details: Homo sapiens, Epithelial cell, CRL1790 non-tumoral colon epithelial cells, 48 h, mean ± SD
Description: as §1, §2, §3

[1] = test system: G4 structures in SW480 cells; test: BG4 immunofluorescence (G4 stabilization in cells); assay type: cell-based, human; details: SW480, CX5461 10 µM for 6 h, positive control
Description: Cells were seeded on 13 mm circular coverslips and placed in 24-well plates. After exposure to different experimental conditions, fixation was performed with 4% (v/v) paraformaldehyde (P6148, Merck, Darmstadt, Germany) for 10 min at room temperature (RT), permeabilization with 0.1% (v/v) Triton-X100 (T8787, Merck, Darmstadt, Germany) for 10 min and blocking with 10% bovine serum albumin (A7906, Merck, Darmstadt, Germany) containing 0.5% (v/v) Triton-X100 for 30 min at RT. Primary antibodies were incubated for 1 h at RT and secondary antibodies for 30 min at 4 °C in darkness. Finally, all coverslips were mounted onto slides (J2800AMNZ, Thermo scientific, Waltham, MA, USA), including DAPI (4′,6-diamidino-2-phenylindole) for nuclear counterstain. Images were acquired on a Confocal Zeiss LSM 710 inverted microscope with a 63× immersion objective. In a different manner, BG4 immunofluorescence was conducted as previously described [11]. BG4 mean nuclear fluorescence intensity was quantified using Fiji software (N > 250).

[2] = test system: G4-enriched genes (5′ETS, BCL2, CMYB, CMYC, KRAS, VEGFA) in SW480 cells; test: qRT-PCR of G4-enriched genes; assay type: cell-based, human; details: SW480, CX5461 10 µM for 6 h
Description: Total cellular RNA was isolated from different experimental group cells using Trizol Reagent (15596, Invitrogen, Waltham, MA, USA). Reverse transcription was conducted using RevertAid First Strand cDNA Synthesis Kit (K1622, Thermo Scientific, MA, USA) according to manufacturer’s protocol with random primers. Quantitative PCR was performed with SYBR Green (4309155, Thermo Scientific, MA, USA) on 7900HT Fast Real-time PCR System (Applied Biosystems). Target mRNA levels were normalized to actin (ΔCt), and fold change was determined using the 2^−ΔΔCt method. Experiments were conducted in triplicate.
In this context, we aimed to analyze whether GA affects the transcription of G4-enriched genes by qRT-PCR. In the case of ribosomal DNA, we measured the short-lived 5′ external transcribed spacer (5′ETS) of the pre-RNA, whichreflects the ribosomal RNA synthesis rate [19].

γH2AX in SW480 cells = test: Western blot of γH2AX (DNA damage); assay type: cell-based, human; details: SW480, CX5461 10 µM for 6 h
Description: Protein extract from different experimental conditions was extracted using RIPA lysis buffer containing 1% PMSF (P7626, Merck, Darmstadt, Germany), 1% protease inhibitor cocktail (PIC) (P8340, Merck, Darmstadt, Germany), and 1% sodium orthovanadate (S6508, Merck, Darmstadt, Germany). Quantification of protein levels was achieved by Bradford method following manufacturer’s protocol (500-0006, BioRad, Hercules, CA, USA). Protein content was loaded on 12% SDS-polyacrylamide gel (1610148, BioRad, Hercules, CA, USA) for electrophoresis and wet transferred to nitrocellulose membranes (66485, Pall corporation, New York, NY, USA). Membranes were blocked with 5% semi-skimmed milk and incubated overnight at 4 °C with antibodies for γH2AX and actin as housekeeping. Then, membranes were incubated with horseradish peroxidase-labeled antibodies for 1 h at RT. After luminal solution (1705060, BioRad, Hercules, CA, USA) incubation, chemiluminiscence signals were measured using Image Quant LAS 4000 (GE Healthcare Life Sciences). […] Protein levels were quantified by ImageJ.
Then, we investigated DNA damage response because the induction of double-strand breaks is a well-known G4s stabilization associated effect [20]. To this end, we measured the phosphorylation of histone H2AX on Ser-139 (γH2AX), a DNA damage marker, by Western Blot.

SMILES	IC50 (SW480 cells) [µM]	IC50 (SW620 cells) [µM]	IC50 (CRL1790 cells) [µM]	nuclear BG4 signal [1]	transcription of G4-enriched genes [2]	DNA damage (γH2AX protein levels) (γH2AX in SW480 cells)
OCCc1ccc(O)c(O)c1 [Hydroxytyrosol, hydroxytyrosol]	> 100	71.9 ± 3.52	> 100			
OC[C@H]1O[C@@H](Oc2cc(O)cc(/C=C/c3ccc(O)cc3)c2)[C@H](O)[C@@H](O)[C@@H]1O [Piceid, piceid]	> 100	> 100	> 100			
OCCc1ccc(O)cc1 [Tyrosol, tyrosol]	> 100	> 100	> 100			
Cc1cnc(CNC(=O)c2c(=O)c3ccc(N4CCCN(C)CC4)nc3n3c2sc2ccccc23)cn1 [CX5461]				A similar effect was observed	influenced the expression levels of some of these genes	significantly induced DNA damage
Oc1ccc(/C=C/c2cc(O)cc(O)c2)cc1 [Resveratrol, resveratrol]	> 100	> 100	> 100			
